Laboratory results published in US9320276B2, “N-hetarylmethyl pyrazolylcarboxamides” (BAYER INTELLECTUAL PROPERTY GMBH, priority 2010, dated 2016).

Columns and labels:
[1] = test system: Pyrenophora teres; experiment: in vivo preventive test on Pyrenophora teres (barley); conditions: 500 ppm of active ingredient, evaluated 7-9 days after inoculation
Summary of the method: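 Young barley plants sprayed with compound in DMF/alkylaryl polyglycol ether emulsion; inoculated with P. teres spores one day later. 48 h at 22 °C, 100% humidity, then greenhouse ~20 °C, ~80% humidity; efficacy scored 7-9 days post-inoculation, 0% = untreated, 100% = no disease.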

[2] = test system: Venturia inaequalis; experiment: in vivo preventive test on Venturia inaequalis (apple scab); conditions: 100 ppm of active ingredient, evaluated 10 days after inoculation
Protocol: Solvent: 24.5 parts by weight of acetone • 24.5 parts by weight of N,N-dimethylacetamide Emulsifier: 1 part by weight of alkylaryl polyglycol ether To produce a suitable preparation of active compound, 1 part by weight of active compound is mixed with the stated amounts of solvent and emulsifier, and the concentrate is diluted with water to the desired concentration. To test for preventive activity, young plants are sprayed with the preparation of active compound at the stated rate of application. After the spray coating has dried on, the plants are inoculated with an aqueous conidia suspension of the causal agent of apple scab (Venturia inaequalis) and then remain for 1 day in an incubation cabinet at approximately 20° C. and a relative atmospheric humidity of 100%. The plants are then placed in a greenhouse at approximately 21° C. and a relative atmospheric humidity of approximately 90%. The test is evaluated 10 days after the inoculation. 0% means an efficacy which corresponds to that of the untreated control, while an efficacy of 100% means that no disease is observed.

[3] = test system: Alternaria solani; experiment: in vivo preventive test on Alternaria solani (tomato); conditions: 500 ppm of active ingredient, evaluated 7 days after inoculation
Summary of the method: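 Young tomato plants were sprayed preventively with compound in DMF/alkylarylpolyglycolether diluted in water, then inoculated one day later with A. solani spores. Incubation was 1 day at about 22 °C and 100% RH, then about 20 °C and 96% RH. Efficacy was scored 7 days after inoculation (0% = untreated control, 100% = no disease).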

[4] = test system: Septoria tritici; experiment: in vivo preventive test on Septoria tritici (wheat); conditions: 500 ppm of active ingredient, evaluated 21 days after inoculation
Protocol: Solvent: 49 parts by weight of N,N-dimethylacetamide Emulsifier: 1 part by weight of alkylaryl polyglycol ether To produce a suitable preparation of active compound, 1 part by weight of active compound or active compound combination is mixed with the stated amounts of solvent and emulsifier, and the concentrate is diluted with water to the desired concentration. To test for preventive activity, young plants are sprayed with the preparation of active compound or active compound combination at the stated rate of application. After the spray coating has been dried, the plants are sprayed with a spore suspension of Septoria tritici. The plants remain for 48 hours in an incubation cabinet at approximately 20° C. and a relative atmospheric humidity of approximately 100% and afterwards for 60 hours at approximately 15° C. in a translucent incubation cabinet at a relative atmospheric humidity of approximately 100%. The plants are placed in the greenhouse at a temperature of approximately 15° C. and a relative atmospheric humidity of approximately 80%. The test is evaluated 21 days after the inoculation. 0% means an efficacy which corresponds to that of the untreated control, while an efficacy of 100% means that no disease is observed.

[5] = logP by HPLC on reversed-phase column (EEC Directive 79/831 Annex V.A8); type: physicochemical; conditions: 40° C., 0.1% aqueous formic acid and acetonitrile, linear gradient 10% to 90% acetonitrile
Summary of the method: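 Reversed-phase C18 HPLC at 40° C with 0.1% aqueous formic acid/acetonitrile, linear gradient 10% to 90% acetonitrile. LogP obtained from retention time by linear interpolation between successive unbranched alkan-2-ones (3 to 16 carbons) of known logP. Lambda-max taken from UV spectra at 200-400 nm at chromatographic peak maxima.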

[6] = test system: Blumeria graminis fsp. hordei; experiment: in vivo preventive test on Blumeria graminis (barley); conditions: 500 ppm of active ingredient, evaluated 7 days after inoculation
Protocol: Solvent: 49 parts by weight of N,N-dimethylacetamide Emulsifier: 1 part by weight of alkylaryl polyglycol ether To produce a suitable preparation of active compound, 1 part by weight of active compound or active compound combination is mixed with the stated amounts of solvent and emulsifier, and the concentrate is diluted with water to the desired concentration. To test for preventive activity, young plants are sprayed with the preparation of active compound or active compound combination at the stated rate of application. After the spray coating has been dried, the plants are dusted with spores of Blumeria graminis fsp. hordei. The plants are placed in the greenhouse at a temperature of approximately 18° C. and a relative atmospheric humidity of approximately 80% to promote the development of mildew pustules. The test is evaluated 7 days after the inoculation. 0% means an efficacy which corresponds to that of the untreated control, while an efficacy of 100% means that no disease is observed.

[7] = test system: Leptosphaeria nodorum; experiment: in vivo preventive test on Leptosphaeria nodorum (wheat); conditions: 500 ppm of active ingredient, evaluated 7-9 days after inoculation
Protocol: Solvent: 49 parts by weight of N,N-dimethylacetamide Emulsifier: 1 part by weight of alkylaryl polyglycol ether To produce a suitable preparation of active compound, 1 part by weight of active compound is mixed with the stated amounts of solvent and emulsifier, and the concentrate is diluted with water to the desired concentration. To test for preventive activity, young plants are sprayed with a preparation of active compound at the stated rate of application. One day after this treatment, the plants are inoculated with an aqueous spore suspension of Leptosphaeria nodorum. The plants remain for 48 hours in an incubation cabinet at 22° C. and a relative atmospheric humidity of 100%. Then the plants are placed in a greenhouse at a temperature of approximately 22° C. and a relative atmospheric humidity of approximately 90%. The test is evaluated 7-9 days after the inoculation. 0% means an efficacy which corresponds to that of the untreated control, while an efficacy of 100% means that no disease is observed.

[8] = HPLC on reversed-phase column (C 18)

In the case of `CC(c1cc2ccccc2o1)N(C(=O)c1c(C(F)F)nn(C)c1F)C1CC1` (racemic) [Example 70], the Efficacy [1] is reported as 100%, the Efficacy [2] is reported as 100% and the Efficacy [3] is reported as 100%. It also gave an Efficacy [4] of 100%, a logP [5, 8] of 3.42 and an Efficacy [6] of 80%. The Efficacy [7] was 83%.

`CC(c1cc2ccccc2s1)N(C(=O)c1c(C(F)F)nn(C)c1F)C1CC1` (racemic) [Example 80] gave an Efficacy [1] of 100%, an Efficacy [2] of 100% and an Efficacy [4] of 100%. For the same molecule, the logP [5, 8] was 3.69, the Efficacy [6] was 86% and the Efficacy [7] was 100%.

In the case of `CC(c1cccc2ccsc12)N(C(=O)c1c(C(F)F)nn(C)c1F)C1CC1` (stereo not shown) [Example 91], the Efficacy [1] is reported as 100%, the Efficacy [2] is reported as 100% and the Efficacy [3] is reported as 95%. It also gave an Efficacy [4] of 100%, a logP [5, 8] of 3.44 and an Efficacy [6] of 94%. For the same molecule, the Efficacy [7] was 100%.

Molecule `Cn1nc(C(F)F)c(C(=S)N(Cc2cccc3ccsc23)C2CC2)c1F` [Example 95] has an Efficacy [1] of 100%, an Efficacy [2] of 99% and an Efficacy [3] of 95%. For the same molecule, the Efficacy [4] was 80%, the logP [5, 8] was 3.83 and the Efficacy [6] was 100%.

With `CC(c1cc(Cl)sc1Cl)N(C(=O)c1c(C(F)F)nn(C)c1F)C1CC1` (stereo not shown) [Example 128] the Efficacy [1] was 100%, the Efficacy [2] was 100% and the Efficacy [3] was 100%. It also gave an Efficacy [4] of 90%, a logP [5, 8] of 4.03 and an Efficacy [6] of 100%. The Efficacy [7] was 100%.

In the case of `Cc1sc(-c2ccccc2)cc1C(C)N(C(=O)c1c(C(F)F)nn(C)c1F)C1CC1` (stereo not shown) [Example 147], the Efficacy [1] is reported as 100%, the Efficacy [2] is reported as 100% and the Efficacy [3] is reported as 95%. For the same molecule, the Efficacy [4] was 80%, the logP [5, 8] was 4.41 and the Efficacy [6] was 70%. It also gave an Efficacy [7] of 93%.

For `CC(C)c1nn(-c2ccccc2)c(Cl)c1CN(C(=O)c1c(C(F)F)nn(C)c1F)C1CC1` [Example 169], the Efficacy [1] was 100%, the Efficacy [3] was 100% and the Efficacy [4] was 100%. It also gave a logP ([5]; HPLC, reversed-phase column (C 18)) of 3.94, an Efficacy [6] of 100% and an Efficacy [7] of 100%.
